{"source": "patent US6514949B1", "about": "“Method compositions for treating the inflammatory response” (University of Virginia Patent Foundation, priority 1994, dated 2003)", "key": {"TNFα-stimulated PMN": {"tested_on": "TNFα-stimulated PMN", "test": "TNF-stimulated PMN adherence to a fibrinogen-coated surface", "type": "cell-based, human", "method": "PMN adherence to fibrinogen was measured as follows as adapted from Hanlon, J. Leukocyte Biol., 50, 43 (1991). Twenty-four well flat-bottomed tissue culture plates were incubated (37° C.) overnight with 0.5 ml of fibrinogen (5 mg/ml) dissolved in 1.5% NaHCO3. The plates were emptied and each well washed 2× with 1 ml of normal saline. The wells were then filled with 1 ml of HBSS-0.1% human serum albumin containing PMN (1×10^6/ml) with and without rhTNFα (1 U/ml), adenosine deaminase (ADA) (1 U/ML), WRC-0474[SHA 211] (10 nM), CGS21680 (30 nM), adenosine (100 nM) and rolipram (100 nM). The plates were incubated for 90 minutes at 37° C. in 5% CO2. Following incubation the tissue culture wells were washed free of non-adherent cells with normal saline. The adherent monolayer of PMN was lysed with 0.1% triton-X, the amount of lactic dehydrogenase (LDH) released from the monolayer assayed (LDH kit, Sigma Co., St. Louis, Mo.), and compared to a standard curve relating the LDH content to PMN numbers."}, "[1]": {"tested_on": "TNFα-stimulated adherent human neutrophils", "test": "TNFα-stimulated superoxide release of PMN adherent to fibrinogen coated surface", "type": "cell-based", "conditions": "for superoxide release of TNFα-stimulated adherent PMN: 300 nM combined with rolipram (100 nM), p<0.05, FIG. 5", "method": "TNFα-stimulated superoxide release of PMN adherent to a matrix protein (fibrinogen) coated surface. Human PMN (1×10^6/ml) from Ficoll-Hypaque separation were incubated for 90 minutes in 1 ml of Hanks balanced salt solution containing 0.1% human serum albumin, cytochrome c (120 μM), and catalase (0.062 mg/ml) in the presence and absence of rhTNF (1 U/ml), WRC-0474[SHA 211] (10 nM) and rolipram (100 nM) in a tissue culture well which had been coated overnight with human fibrinogen. SOD (200 U/ml) was added to matched samples. The supernatants were iced and centrifuged (2000 g×10 minutes) to remove any remaining suspended cells, and the optical density of the supernatants were read at 550 nm against the matched SOD samples, and the nmoles of SOD-inhibitable superoxide released in 90 minutes were calculated.\nAdditional effects of adenosine A2A agonists on adherent human neutropbil oxidative activity. The bioactivity of test compounds WRC-0474[SHA 211], WRC-0470, WRC-0090 and WRC-0018 were evaluated according to the following method modified from Sullivan, G. W. et al., Int. J. Immunopharmacol, 17, 793-803 (1995). Neutrophils (1×10^6/ml from Ficoll-Hypaque separation were incubated for 90 minutes in 1 ml of Hanks balanced salt solution containing 0.1% human serum albumin, cytochrome c (120 μM) and catalase (0.062 mg/ml in the presence and absence of rhTNFα (1 U/ml), WRC-0474[SHA 211], WRC-0470, WRC-0090 and WRC-0018 (3-300 nM), and rolipram (100 nM) in a tissue culture well which had been coated overnight with human fibrinogen. The supernatants were iced and centrifuged (200 g×10 min) to remove any remaining suspended cells, and the optical densities of the supernatants were read at 550 nm against matched superoxide dismutase (SOD) (200 U/ml) samples. The nmoles of SOD=inhabitable superoxide released in 90 min were calculated."}, "[2]": {"tested_on": "TNFα-stimulated adherent neutrophil", "test": "PMN degranulation (adherent cells), lysozyme release", "type": "cell-based, human", "conditions": "WRC-0470 300 nM with rolipram 300 nM; P=0.027", "method": "PMN degranulation (adherent cells). The following methods were adapted from Sullivan, G. W. and G. L. Mandell, Infect. Inumun., 30, 272-280 (1980). […] The supernatant fluids with any suspended neutrophils were harvested following incubation, centrifuged (2000 ×g for 10 min) to remove any suspended cells and the cell-free supernatants frozen. Release of lysozyme, a component of neutrophil primary and secondary granules was assayed. Lysis of a suspension of Micrococcus lysodeikticus by the “cell-free supernatant” was measured by spectrophotometric analysis ([…]) to determine the amount of release of granule contents to the surrounding medium."}, "[3]": {"tested_on": "neutrophils in whole blood", "test": "PMN oxidative activity in whole blood", "type": "cell-based", "method": "PMN oxidative activity in whole blood. The following methods were adapted from Rothe, G. A. et al., J. Immunol. Meth., 138, 133-135 (1991). Heparinized whole blood (0.8 ml) was incubated (37°; 30 min) with adenosine deaminase (ADA, 1 U/ml), catalase (14,000 U/ml), ±dihydrorhodamine 123, ±WRC-0470 (3-300 nM), ±rolipram (300 nM) and ±TNFα (10 U/ml). The primed blood samples were stimulated with fMLP (15 min), then iced, the red blood cells lysed with FACS lysing solution (Becton-Dickinson, San Jose, Calif.), washed and the leukocytes resuspended in phosphate-buffered saline (PBS). These samples containing mixed leukocytes were gated for neutrophils by forward and side scatter and the fluorescence of 10,000 neutrophils measured in the FL1 channel of a FACScan (Beckton-Dickinson) fluorescence-activated cell sorter."}, "adherent human monocytes": {"tested_on": "adherent human monocytes", "test": "Production of TNFα by purified human adherent monocytes", "type": "cell-based", "method": "Production of TNFα by purified human adherent monocytes. A monocyte rich monolayer (>95% monocytes) was prepared by incubating 1 ml of the mononuclear leukocyte fraction (5×10^5/ml) from a Ficoll-Hypaque separation in wells of a 24 well tissue culture plate (1 hr; 37° C.; 5% CO2). […] The samples were incubated for 4 hr (37° C.; 5% CO2) and the supernatants harvested. Any suspended cells were removed by centrifugation and the cell-free samples frozen (−70° C.). TNFα was assayed in the cell-free supernatants by an ELISA kit (Cistron Biotechnology, Pine Brook, N.J.)."}, "Adult wistar rats": {"tested_on": "Adult wistar rats", "test": "Rat model of inflammation (bacterial meningitis): CSF WBC pleocytosis and blood-brain barrier permeability", "type": "in vivo", "method": "Effects of WRC-0470 and rolipram on the extravasation of white blood cells in a rat model of inflammation. Adult wistar rats (approximately 200 g) were anesthetized with intermuscular injections of ketamine and xylazine. Bacteria meningitis (BM) was introduced via intracistemal inoculation of either E. coli strain 026:B6LPS (200 ng), cytokines (IL-1 and TNFα, or LPS plus cytokines). The animals were then infused with rolipram and/or […] over the duration of the experiment using a Harvard pump. CSF (cerebrospinal fluid) and blood was then sampled at 4 h post-inoculation and alterations in BBBP (blood-brain barrier permeability) and WBC (white blood cell) counts were determined. CSF and WBC concentrations were determined with standard hemacytometer methods. For assessment of % BBBP, rats were given an intravenous injection of 5 μCi 125I-labeled bovine serum albumin concomitant with intracistemal inoculation. Equal samples of CSF and blood were read simultaneously in a gamma counter and after subtraction of background radioactivity, % BBBP was calculated by the following formula: % BBBP=(cpm CSF/cpm blood)×100. All statistical tests were performed using Instat biostatistical software to compare the post-inoculation samples of experimental rats with the control rats. The statistical tests used to generate p-values were Student's t-test and ANOVA."}}}
{"smiles": "CCNC(=O)[C@H]1O[C@@H](n2cnc3c(N)nc(NCCc4ccc(CCC(=O)O)cc4)nc32)[C@H](O)[C@@H]1O", "note": "[CGS21680]", "values": [{"measurement": "TNF-stimulated PMN adherence", "setting": "TNFα-stimulated PMN; 30 nM, in the presence of ADA, TNF control 38%, p=0.004", "value": 30, "unit": "% adhered"}]}
{"smiles": "Nc1nc(OCCc2ccc3ccccc3c2)nc2c1ncn2[C@@H]1O[C@H](CO)[C@@H](O)[C@H]1O", "note": "[WRC-0018]", "values": [{"measurement": "superoxide release of TNFα-stimulated adherent PMN", "setting": "[1]", "value": "synergistically decreased superoxide release"}]}
{"smiles": "Cc1ccc(CCOc2nc(N)c3ncn([C@@H]4O[C@H](CO)[C@@H](O)[C@H]4O)c3n2)cc1", "note": "[WRC-0090]", "values": [{"measurement": "superoxide release of TNFα-stimulated adherent PMN", "setting": "[1]", "value": "synergistically decreased superoxide release"}]}
{"smiles": "Nc1nc(N/N=C/C2CCCCC2)nc2c1ncn2[C@@H]1O[C@H](CO)[C@@H](O)[C@H]1O", "note": "[WRC-0470]", "values": [{"measurement": "superoxide release of TNFα-stimulated adherent PMN", "setting": "[1]", "value": "synergistically decreased superoxide release"}, {"measurement": "rank of activity among the four A2A agonists, adherent PMN oxidative activity", "setting": "[1]; in the presence of rolipram", "value": "most active"}, {"measurement": "decrease of TNFα-stimulated adherent neutrophil degranulation", "setting": "[2]", "value": 67, "unit": "%"}, {"measurement": "neutrophil oxidative activity in whole blood", "setting": "[3]; 30-300 nM with rolipram 300 nM, fMLP or TNFα then fMLP", "value": "decreased neutrophil oxidative activity synergistically"}, {"measurement": "oxidative activity of TNFα-primed fMLP-stimulated neutrophils in whole blood", "setting": "[3]; FIG. 6", "value": "decreased oxidative activity"}, {"measurement": "endotoxin-stimulated adherent monocyte production of TNFα", "setting": "adherent human monocytes; ±rolipram, P<0.050, FIGS. 7A and 7B", "value": "decreased"}, {"measurement": "blood-brain barrier permeability (% BBBP)", "setting": "Adult wistar rats; 1.2 μg/kg/hr, rebound effect", "value": "returned to control"}, {"measurement": "blood-brain barrier permeability (% BBBP)", "setting": "Adult wistar rats; 0.01-0.015 μg/kg/hr, p<0.05 as compared to control, FIG. 9", "value": "significant response"}, {"measurement": "WBC migrated into the sub-arachnoid space (CSF WBC)", "setting": "Adult wistar rats; WRC-0470 0.1 μg/kg/hr in combination with rolipram 0.001 μg/kg/hr, FIG. 11", "value": "200±70", "unit": "WBC/μl"}, {"measurement": "WBC migrated into the sub-arachnoid space (CSF WBC)", "setting": "Adult wistar rats; WRC-0470 alone (0.1 μg/kg/hr), p<0.050 vs combination", "value": "600±308", "unit": "WBCs/μl"}, {"measurement": "CSF WBC pleocytosis", "setting": "Adult wistar rats; infusion 0.005-1.2 μg/kg/hr, p<0.05 as compared to control, FIG. 8", "value": "inhibited pleocytosis"}]}
{"smiles": "Nc1nc(NCCc2ccc(O)cc2)nc2nc(-c3ccco3)nn12", "note": "[ZM241385, 4-(2-[7-amino-2-(2-furyl)[1,2,4]-triazolo[2,3a]-[1,3,5]trazinyl-amino]ethyl)-phenol, reference compound]", "values": [{"measurement": "antagonism of the effect of WRC-0470 (300 nM) combined with rolipram (300 nM) on TNFα release from monocytes", "setting": "adherent human monocytes; ZM241385 50 nM, p=0.020, FIG. 7B", "value": "significantly inhibited the effect of WRC-0470"}]}
{"smiles": "Nc1ncnc2c1ncn2[C@@H]1O[C@H](CO)[C@@H](O)[C@H]1O", "note": "[adenosine]", "values": [{"measurement": "TNF-stimulated PMN adherence", "setting": "TNFα-stimulated PMN; 100 nM, p=0.009 compared to TNF in the presence of ADA", "value": 28, "unit": "% adhered"}]}
{"smiles": "COc1ccc(C2CNC(=O)C2)cc1OC1CCCC1", "note": "(centres unmarked) [rolipram, 4-(3-cyclopentyloxy-4-methoxyphenyl)-2-pyrrolidone, reference compound]", "values": [{"measurement": "alterations of BBBP", "setting": "Adult wistar rats; 0.002 μg/kg/hr", "value": "no significant effect"}, {"measurement": "inhibition of CSF pleocytosis", "setting": "Adult wistar rats; 0.01 μg/kg/hr, p<0.05, FIG. 10", "value": 99, "unit": "%"}, {"measurement": "alterations of BBBP", "setting": "Adult wistar rats; 0.01 or 0.005 μg/kg/hr, p<0.05", "value": "significant inhibition"}, {"measurement": "WBC migrated into the sub-arachnoid space (CSF WBC)", "setting": "Adult wistar rats; rolipram alone (0.001 μg/kg/hr), p<0.050 vs combination", "value": "1,670±1,273 WBC/μl"}]}
